Test results from patent US20140228377A1, “METHYLPIPERIDINE DERIVATIVE” (TAISHO PHARMACEUTICAL CO., LTD., priority 2011, published 2014).

What was measured:
[1] = biological target: T1, human orexin-1 receptor (hOX1R) (Homo sapiens, UniProt O43613); test: Orexin antagonistic activity assay (intracellular Ca2+, FDSS) in CHO cells expressing hOX1R; assay type: cell-based; details: CHO cells expressing hOX1R; ligand peptide 300 pM; Fluo-3 maximum fluorescence intensity; read-out: IC50 value OX1
T1 construct: expressed in transfected cells; host or cells: Chinese hamster ovary (CHO) cells
T1 sequence (O43613 1-425): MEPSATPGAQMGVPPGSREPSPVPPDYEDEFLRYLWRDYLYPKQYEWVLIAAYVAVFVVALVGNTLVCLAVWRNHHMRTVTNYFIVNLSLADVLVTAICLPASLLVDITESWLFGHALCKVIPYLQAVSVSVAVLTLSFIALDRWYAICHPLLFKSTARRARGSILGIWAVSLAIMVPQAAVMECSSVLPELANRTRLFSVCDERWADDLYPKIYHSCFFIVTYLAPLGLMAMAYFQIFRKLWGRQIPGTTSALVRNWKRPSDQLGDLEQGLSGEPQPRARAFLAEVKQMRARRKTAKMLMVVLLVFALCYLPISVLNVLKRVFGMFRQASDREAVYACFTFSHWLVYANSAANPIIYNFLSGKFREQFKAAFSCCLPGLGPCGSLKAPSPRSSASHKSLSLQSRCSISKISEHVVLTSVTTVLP
Description: (§1) The antagonistic activity of each test compound against human orexin-1 receptor (hOX1R) and orexin-2 receptor (hOX2R) was assayed by a modification of a method described in the literature (Toshikatsu Okumura et al., Biochemical and Biophysical Research Communications 280, 976-981, 2001). Chinese hamster ovary (CHO) cells forced to express hOX1R or hOX2R were inoculated at a density of 20,000 cells/well to a 96-well Black clear bottom plate (Nunc) and cultured at 37° C. for 16 hours under 5% CO2 conditions in a Ham's F-12 medium containing 0.1 mM MEM nonessential amino acids, 0.5 mg/ml G418, and 10% fetal bovine serum (all from Invitrogen Corp.). After removal of the medium, 100 μL of a buffer solution for assay (25 mM HEPES (Dojindo Laboratories), Hanks' balanced salt solution (Invitrogen Corp.), 0.1% bovine serum albumin, 2.5 mM probenecid, and 200 μg/ml Amaranth (all from Sigma-Aldrich Corp.), pH 7.4) containing 0.5 μM Fluo-3 AM ester (Dojindo Laboratories) was added to the cells, which were then incubated at 37° C. for 60 minutes under 5% CO2 conditions. After removal of the buffer solution for assay containing Fluo-3 AM ester, each test compound was dissolved at a concentration of 10 mM in dimethyl sulfoxide and diluted with a buffer solution for assay. Then, 150 μL of the solution was added to the cells, which were then incubated for 30 minutes.
(§2) A ligand peptide (Pyr-[…]NH2; Peptide Institute, Inc.) derived from human orexin-A by the substitution of two amino acids was diluted with a buffer solution for assay to final concentrations of 300 pM for hOX1R and 3 nM for hOX2R. Reaction was initiated by the addition of 50 μL of this ligand solution. The fluorescence intensity of the reaction was measured in each well every second for 3 minutes using Functional Drug Screening System (FDSS; manufactured by Hamamatsu Photonics K.K.), and the maximum fluorescence intensity was used as an index for intracellular Ca^2+ concentration to determine antagonistic activity. The antagonistic activity of the test compound was calculated with fluorescence intensity from a well supplemented with only a diluting buffer solution as 100% and fluorescence intensity from a well supplemented with a buffer solution free from the ligand and the compound as 0%. The 50% inhibitory concentration (IC50 value) was determined on the basis of fluorescence intensity derived from the test compound added at varying concentrations.

[2] = biological target: T2, orexin-2 receptor (hOX2R) (Homo sapiens, UniProt O43614); test: Orexin antagonistic activity assay (intracellular Ca2+, FDSS) in CHO cells expressing hOX2R; assay type: cell-based; details: CHO cells expressing hOX2R; ligand peptide 3 nM; Fluo-3 maximum fluorescence intensity; read-out: IC50 value OX2
T2 construct: expressed in transfected cells; host or cells: Chinese hamster ovary (CHO) cells
T2 sequence (O43614 1-444): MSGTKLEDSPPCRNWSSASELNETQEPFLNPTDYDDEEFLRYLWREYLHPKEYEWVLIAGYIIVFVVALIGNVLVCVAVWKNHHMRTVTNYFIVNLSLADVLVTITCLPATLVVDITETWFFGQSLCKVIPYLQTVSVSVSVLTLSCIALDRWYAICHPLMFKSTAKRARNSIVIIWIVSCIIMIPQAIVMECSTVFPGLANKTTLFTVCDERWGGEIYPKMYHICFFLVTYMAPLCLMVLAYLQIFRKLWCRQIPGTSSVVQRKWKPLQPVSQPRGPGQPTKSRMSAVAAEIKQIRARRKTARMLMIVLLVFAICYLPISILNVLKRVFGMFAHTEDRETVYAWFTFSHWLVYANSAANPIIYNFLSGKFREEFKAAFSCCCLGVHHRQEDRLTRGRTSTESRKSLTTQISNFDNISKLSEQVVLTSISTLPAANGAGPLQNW
Description: as §1, §2

IC50 [1] [nM] | IC50 [2] [nM] | SMILES
1040 | 919 | Cc1ccc(-n2nccn2)c(C(=O)N2C[C@H](c3nc4cc(OC(F)(F)F)ccc4o3)CC[C@H]2C)n1 [Example 42, [6-Methyl-3-(2H-1,2,3-triazol-2-yl)pyridin-2-yl]{(2R,5R)-2-methyl-5-[5-(trifluoromethoxy)-1,3-benzoxazol-2-yl]piperidin-1-yl}methanone]
4.1 | 9.8 | Cc1ccc(-n2nccn2)c(C(=O)N2C[C@H](c3nc4ccc(Cl)cc4o3)CC[C@H]2C)c1 [Example 43, [(2R,5R)-5-(6-Chloro-1,3-benzoxazol-2-yl)-2-methylpiperidin-1-yl][5-methyl-2-(2H-1,2,3-triazol-2-yl)phenyl]methanone]
9.1 | 23.1 | Cc1ccc(-c2ncccn2)c(C(=O)N2C[C@H](c3nc4ccc(Cl)cc4o3)CC[C@H]2C)c1 [Example 44, [(2R,5R)-5-(6-Chloro-1,3-benzoxazol-2-yl)-2-methylpiperidin-1-yl][5-methyl-2-(pyrimidin-2-yl)phenyl]methanone]
77.2 | 12.2 | C[C@@H]1CC[C@@H](c2nc3ccc(Cl)cc3o2)CN1C(=O)c1cc(F)ccc1-c1ncccn1 [Example 45, [(2R,5R)-5-(6-Chloro-1,3-benzoxazol-2-yl)-2-methylpiperidin-1-yl][5-fluoro-2-(pyrimidin-2-yl)phenyl]methanone]
10 | 70 | Cc1ccc(-n2nccn2)c(C(=O)N2C[C@H](c3nc4ccc(Cl)cc4o3)CC[C@H]2C)n1 [Example 46, [(2R,5R)-5-(6-Chloro-1,3-benzoxazol-2-yl)-2-methylpiperidin-1-yl][6-methyl-3-(2H-1,2,3-triazol-2-yl)pyridin-2-yl]methanone]
58.6 | 16.6 | C[C@@H]1CC[C@@H](c2nc3ccc(Cl)cc3o2)CN1C(=O)c1ccc(F)cc1-n1nccn1 [Example 47, [(2R,5R)-5-(6-Chloro-1,3-benzoxazol-2-yl)-2-methylpiperidin-1-yl][4-fluoro-2-(2H-1,2,3-triazol-2-yl)phenyl]methanone]
58.8 | 12.4 | C[C@@H]1CC[C@@H](c2nc3ccc(Cl)cc3o2)CN1C(=O)c1c(F)cccc1-n1nccn1 [Example 48, [(2R,5R)-5-(6-Chloro-1,3-benzoxazol-2-yl)-2-methylpiperidin-1-yl][2-fluoro-6-(2H-1,2,3-triazol-2-yl)phenyl]methanone]
103 | 93.1 | C[C@@H]1CC[C@@H](c2nc3ccc(F)cc3o2)CN1C(=O)c1cc(Cl)ccc1-c1ncccn1 [Example 49, [5-Chloro-2-(pyrimidin-2-yl)phenyl][(2R,5R)-5-(6-fluoro-1,3-benzoxazol-2-yl)-2-methylpiperidin-1-yl]methanone]
9.8 | 8.6 | Cc1ccc(-n2nccn2)c(C(=O)N2C[C@H](c3nc4cc(F)c(F)cc4o3)CC[C@H]2C)c1 [Example 50, [(2R,5R)-5-(5,6-Difluoro-1,3-benzoxazol-2-yl)-2-methylpiperidin-1-yl][5-methyl-2-(2H-1,2,3-triazol-2-yl)phenyl]methanone]
13.5 | 7.3 | Cc1ccc(-c2ncccn2)c(C(=O)N2C[C@H](c3nc4cc(F)c(F)cc4o3)CC[C@H]2C)c1 [Example 51, [(2R,5R)-5-(5,6-Difluoro-1,3-benzoxazol-2-yl)-2-methylpiperidin-1-yl][5-methyl-2-(pyrimidin-2-yl)phenyl]methanone]
82.9 | 11 | C[C@@H]1CC[C@@H](c2nc3cc(F)c(F)cc3o2)CN1C(=O)c1cc(F)ccc1-c1ncccn1 [Example 52, [(2R,5R)-5-(5,6-Difluoro-1,3-benzoxazol-2-yl)-2-methylpiperidin-1-yl][5-fluoro-2-(pyrimidin-2-yl)phenyl]methanone]
56.3 | 13.2 | C[C@@H]1CC[C@@H](c2nc3cc(F)c(F)cc3o2)CN1C(=O)c1cc(Cl)ccc1-c1ncccn1 [Example 53, [5-Chloro-2-(pyrimidin-2-yl)phenyl][(2R,5R)-5-(5,6-difluoro-1,3-benzoxazol-2-yl)-2-methylpiperidin-1-yl]methanone]
98.7 | 52 | Cc1ccc(-n2nccn2)c(C(=O)N2C[C@H](c3nc4cc(F)c(F)cc4o3)CC[C@H]2C)n1 [Example 54, [(2R,5R)-5-(5,6-Difluoro-1,3-benzoxazol-2-yl)-2-methylpiperidin-1-yl][6-methyl-3-(2H-1,2,3-triazol-2-yl)pyridin-2-yl]methanone]
207 | 9.4 | C[C@@H]1CC[C@@H](c2nc3cc(F)c(F)cc3o2)CN1C(=O)c1ccc(F)cc1-n1nccn1 [Example 55, [(2R,5R)-5-(5,6-Difluoro-1,3-benzoxazol-2-yl)-2-methylpiperidin-1-yl][4-fluoro-2-(2H-1,2,3-triazol-2-yl)phenyl]methanone]
164 | 10 | Cc1ccc(-n2nccn2)c(C(=O)N2C[C@H](c3nc4cc(C#N)ccc4o3)CC[C@H]2C)c1 [Example 56, 2-[(3R,6R)-6-Methyl-1-[5-methyl-2-(2H-1,2,3-triazol-2-yl)benzoyl]piperidin-3-yl]-1,3-benzoxazole-5-carbonitrile]
561 | 20.1 | Cc1ccc(-c2ncccn2)c(C(=O)N2C[C@H](c3nc4cc(C#N)ccc4o3)CC[C@H]2C)c1 [Example 57, 2-{(3R,6R)-6-Methyl-1-[5-methyl-2-(pyrimidin-2-yl)benzoyl]piperidin-3-yl}-1,3-benzoxazole-5-carbonitrile]
9.3 | 9.4 | Cc1ccc(-n2nccn2)c(C(=O)N2C[C@H](c3nc4ccc(F)c(F)c4o3)CC[C@H]2C)c1 [Example 58, [(2R,5R)-5-(6,7-Difluoro-1,3-benzoxazol-2-yl)-2-methylpiperidin-1-yl][5-methyl-2-(2H-1,2,3-triazol-2-yl)phenyl]methanone]
4.4 | 9.2 | Cc1ccc(-c2ncccn2)c(C(=O)N2C[C@H](c3nc4ccc(F)c(F)c4o3)CC[C@H]2C)c1 [Example 59, [(2R,5R)-5-(6,7-Difluoro-1,3-benzoxazol-2-yl)-2-methylpiperidin-1-yl][5-methyl-2-(pyrimidin-2-yl)phenyl]methanone]
93.3 | 45.7 | Cc1ccc(-n2nccn2)c(C(=O)N2C[C@H](c3nc4c(F)cc(F)cc4o3)CC[C@H]2C)c1 [Example 60, [(2R,5R)-5-(4,6-Difluoro-1,3-benzoxazol-2-yl)-2-methylpiperidin-1-yl][5-methyl-2-(2H-1,2,3-triazol-2-yl)phenyl]methanone]
81.3 | 44.2 | Cc1ccc(-c2ncccn2)c(C(=O)N2C[C@H](c3nc4c(F)cc(F)cc4o3)CC[C@H]2C)c1 [Example 61, [(2R,5R)-5-(4,6-Difluoro-1,3-benzoxazol-2-yl)-2-methylpiperidin-1-yl][5-methyl-2-(pyrimidin-2-yl)phenyl]methanone]
